Earlier results, collected in patent US20070093743A1, “Iontophoresis Drug Delivery Device Providing Acceptable Depth and Duration of Dermal Anesthesia” (Vyteris, Inc., priority 2005, published 2007).

Conditions: iontophoresis in vitro across human skin

Row | cumulative delivery compared with lidocaine | SMILES
1 | slightly greater delivery | CCCNC(C)C(=O)Nc1ccccc1C (stereo not drawn) [prilocaine]
2 | slightly greater delivery | CCCN(CC)C(CC)C(=O)Nc1c(C)cccc1C (stereo not drawn) [etidocaine]
3 | slightly greater delivery | CCN(CC)CCOC(=O)c1ccc(N)cc1 [procaine]
